According to patent publication US12485179B2, “Cholecystokinin B receptor targeting for imaging and therapy” (Purdue Research Foundation, priority 2012, dated 2025):

How the values were obtained:
CCK2R [1] = target: T1, CCK2R (Homo sapiens, UniProt P32239); test: Binding of 99mTc conjugates to HEK-293 CCK2R cells (cell bound radioactivity); design: expressed in transfected cells; host or cells: HEK-293, G418-selected, from Dr. Mark Hellmich (University of Texas at Galveston)
T1 sequence (P32239 1-447): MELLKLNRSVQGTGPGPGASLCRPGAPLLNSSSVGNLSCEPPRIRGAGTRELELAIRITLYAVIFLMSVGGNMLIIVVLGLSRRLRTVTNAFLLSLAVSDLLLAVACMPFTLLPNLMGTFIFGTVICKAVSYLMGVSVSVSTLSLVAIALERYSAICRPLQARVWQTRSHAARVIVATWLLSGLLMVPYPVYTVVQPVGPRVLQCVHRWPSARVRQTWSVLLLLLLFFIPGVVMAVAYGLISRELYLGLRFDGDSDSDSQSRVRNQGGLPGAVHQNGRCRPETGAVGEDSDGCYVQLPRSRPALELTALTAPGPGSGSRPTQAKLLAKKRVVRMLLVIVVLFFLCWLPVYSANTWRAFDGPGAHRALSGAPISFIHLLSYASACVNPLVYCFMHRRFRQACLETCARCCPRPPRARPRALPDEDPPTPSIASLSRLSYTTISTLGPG
Experimental: CRL-1, CRL-2, CRL-3 and CRL-4 were chelated to ^99mTc and tested for binding using two transfected cell lines of HEK-CCK2R (HEK-293 CCK2R) and HEK-CCK2R splice cell line (HEK CCK2i4svR), obtained from Dr. Mark Hellmich (University of Texas at Galveston). Cells were cultured in Dulbecco's modified Eagles (Gibco) supplemented with 10% Fetal Bovine Serum and G418 disulfate (SIGMA; 400 μg/ml), 1% penicillin/streptomycin at 37° C. in a humidified 95% air, 5% CO2 atmosphere.
Competition studies were performed using 100 fold excess of free Z-360 containing corresponding peptide linker and no chelating moiety. HEK 293 CCK2R and HEK CCK2i4svR were seeded onto 24 well plates and allowed to become confluent over 48-72 hours. Spent medium in each well was replaced with 0.5 ml fresh media containing 0.5% BSA and increasing concentrations of the test article. After incubating for 1 h at 37° C. cells were rinsed with incubation solution (2×1.0 ml) to remove any unbound radioactivity. Cells were then resuspended on 0.5 ml 0.25N NaOH and cell radioactivity was counted using a γ-counter. The dissociation constant (KD) was calculated using a plot of cell bound radioactivity versus the concentration of the radiotracer using Graphpad Prism 4 and assuming a non-cooperative single site binding equilibrium.

[2] = system: HEK 293 cells expressing the CCK2R; format: cell-based; conditions: for cell toxicity / potency: concentration range used (FIG. 16); for IC50: dose dependent toxicity
Experimental: FIGS. 13A-C show the results of a study on the cytotoxicity of conjugate 23 in HEK CCK2R cells, shown at varying hours from introduction. CW-2478 denotes conjugate 23, with FIG. 13A showing values at 2 hours, FIG. 13B showing the values at 4 hours, and FIG. 13C showing the values at 9 hours.
This may partly explain the modest in vivo antitumor observed activity despite its impressive antagonistic effects.

[3] = system: HEK 293 cells expressing CCK2R tumors; test: In vivo potency, subcutaneous HEK 293 CCK2R tumors; design: species or system nu/nu mice; conditions: for tumor size / growth during the period of the study / antitumor activity in comparison to untreated controls: 2 μmol/kg per injection
Experimental: Following the promising results obtained in vitro with the Z-360 targeted chemotherapeutics, antitumor effects of the compounds were investigated in vivo. HEK 293 cells expressing CCK2R (5.0×10^6 in 50% HC matrigel) were injected in the shoulder of 5-6 week old female nu/nu mice. Tumors were measured in two perpendicular directions every two to three days with vernier calipers, and their volumes calculated as 0.5×L×W^2 where L is the longest axis (in millimeters) and W is the axis perpendicular to L (in millimeters). Dosing solutions were prepared in saline and administered through either the lateral vein of the mice for Tubulysin B conjugates or intraperitoneally for desacetylvinblastine hydrazide conjugates. Dosing was initiated when the subcutaneous tumors reached ˜100 mm^3 in volume. Each mouse received 2 μmol/kg of the test conjugate in 100 microliters of saline per injection, three times a week for three weeks. Mouse weights were also recorded at each dosing as a measure of gross toxicity. Mice in the control groups received no treatment.

[4] = system: subcutaneous PANC-1 tumor; conditions: oral Z-360 along with gemcitabine, cited from earlier work
CCK2R [5] = target: T1, CCK2R; conditions: cited from earlier work
[6] = three times a week for three weeks

| Molecule | cell toxicity / potency [2] | tumor size / growth during the period of the study [3, 6] | antitumor activity in comparison to untreated controls [3, 6] | IC50 [2] | also measured |
| --- | --- | --- | --- | --- | --- |
| CC(C)(C)C(=O)CN1C(=O)[C@H](NC(=O)Nc2cccc(C(=O)N[C@@H](CCC(=O)O)C(=O)N[C@@H](CCC(=O)NC[C@H](O)[C@@H](O)[C@H](O)[C@H](O)CO)C(=O)N[C@@H](CCC(=O)O)C(=O)N[C@@H](CCC(=O)NC[C@H](O)[C@@H](O)[C@H](O)[C@H](O)CO)C(=O)NC[C@H](N)C(=O)N[C@@H](CC(=O)O)C(=O)N[C@@H](CS)C(=O)O)c2)CN(C2CCCCC2)c2ccccc21 [CRL-2 ^99mTc, metal not drawn] | – | – | – | – | specificity of binding (competition with free Z-360) (CCK2R [1]; compared with CRL-1 99mTc): significantly higher specificity |
| CC(C)(C)C(=O)CN1C(=O)[C@H](NC(=O)Nc2cccc(C(=O)NC[C@H](N)C(=O)N[C@@H](CC(=O)O)C(=O)N[C@@H](CS)C(=O)O)c2)CN(C2CCCCC2)c2ccccc21 [CRL-4 ^99mTc, metal not drawn] | – | – | – | – | Kd (CCK2R [1]; 1 h at 37° C., 99mTc chelated, read-out: Kd (nM) HEK-293-CCK2R Cells): 270 nM |
| CC[C@]1(O)CC2CN(CCc3c([nH]c4ccccc34)[C@@](C(=O)OC)(c3cc4c(cc3OC)N(C)[C@H]3[C@@](O)(C(=O)NNC(=O)OCCSSC[C@H](NC(=O)[C@@H](CCC(=O)NC[C@H](O)[C@@H](O)[C@H](O)[C@H](O)CO)NC(=O)[C@@H](CCC(=O)O)NC(=O)[C@@H](CCC(=O)NC[C@H](O)[C@@H](O)[C@H](O)[C@H](O)CO)NC(=O)[C@@H](CCC(=O)O)NC(=O)CCCCCCCN)C(=O)O)[C@H](O)[C@]5(CC)C=CCN6CC[C@]43[C@@H]65)C2)C1 (some centres unmarked) [Unt-DAVBH] | little to no potency | grew at almost the same rate as untreated controls | – | – | – |
| CCCC(=O)OCN(C(=O)[C@@H](NC(=O)C1CCCCN1C)C(C)CC)[C@H](C[C@@H](OC(C)=O)c1nc(C(=O)N[C@@H](Cc2ccc(O)cc2)C[C@H](C)C(=O)NNC(=O)OCCSSC[C@H](NC(=O)[C@@H](CCC(=O)NC[C@H](O)[C@@H](O)[C@H](O)[C@H](O)CO)NC(=O)[C@@H](CCC(=O)O)NC(=O)[C@@H](CCC(=O)NC[C@H](O)[C@@H](O)[C@H](O)[C@H](O)CO)NC(=O)[C@@H](CCC(=O)O)NC(=O)CCCCCCCN)C(=O)O)cs1)C(C)C (some centres unmarked) [Unt-TubH] | little to no potency | – | modest tumor inhibition | – | – |
| CC(C)(C)C(=O)CN1C(=O)[C@H](NC(=O)Nc2cccc(C(=O)O)c2)CN(C2CCCCC2)c2ccccc21 [Z-360, (R)-(−)-3-[3-(1-tert-butylcarbonylmethyl-2-oxo-5-cyclohexyl-1,3,4,5-tetrahydro-2H-1,5-benzodiazepin-3-yl)ureido]benzoic acid monohydrate] | no concentration dependent cell toxicity | – | – | – | inhibition of subcutaneous PANC-1 tumor growth ([4]; compared with either agent alone): 27.1%; survival ([4]; compared with the vehicle): significantly increased survival; selectivity ratio over CCK1R (CCK2R [5]; CCK2R over CCK1R): 672; Ki (CCK2R [5]): 0.47 nM |
| CCCC(=O)OCN(C(=O)[C@@H](NC(=O)C1CCCCN1C)C(C)CC)[C@H](C[C@@H](OC(C)=O)c1nc(C(=O)N[C@@H](Cc2ccc(O)cc2)C[C@H](C)C(=O)NNC(=O)OCCSSC[C@H](NC(=O)[C@@H](CCC(=O)NC[C@H](O)[C@@H](O)[C@H](O)[C@H](O)CO)NC(=O)[C@@H](CCC(=O)O)NC(=O)[C@@H](CCC(=O)NC[C@H](O)[C@@H](O)[C@H](O)[C@H](O)CO)NC(=O)[C@@H](CCC(=O)O)NC(=O)CCCCCCCNC(=O)c2cccc(NC(=O)N[C@@H]3CN(C4CCCCC4)c4ccccc4N(CC(=O)C(C)(C)C)C3=O)c2)C(=O)O)cs1)C(C)C (some centres unmarked) [conjugate 22] | – | reduction of tumor sizes | remarkable antitumor activity | 12 nM | disappearance of tumors ([3]; 2 μmol/kg, three times a week for three weeks, lateral vein): ⅗ |
| CC[C@]1(O)C[C@@H]2CN(CCc3c([nH]c4ccccc34)[C@@](C(=O)OC)(c3cc4c(cc3OC)N(C)[C@H]3[C@@](O)(C(=O)NNC(=O)OCCSSC[C@H](NC(=O)[C@H](CCC(=O)NC[C@H](O)[C@@H](O)[C@H](O)[C@H](O)CO)NC(=O)[C@H](CCC(=O)O)NC(=O)[C@H](CCC(=O)NC[C@H](O)[C@@H](O)[C@H](O)[C@H](O)CO)NC(=O)[C@H](CCC(=O)O)NC(=O)CCCCCCCNC(=O)c5cccc(NC(=O)N[C@@H]6CN(C7CCCCC7)c7ccccc7N(CC(=O)C(C)(C)C)C6=O)c5)C(=O)O)[C@H](O)[C@]5(CC)C=CCN6CC[C@]43[C@@H]65)C2)C1 [conjugate 23] | – | remain the same size | remarkable antitumor activity | – | H & E staining of remaining tumor masses ([3]; conjugate 23 and conjugate 23+competition groups): contain very few malignant cells |
| tubulysin b [reference compound] | – | – | – | 1.3 nM | – |
| vinblastine [reference compound] | – | – | – | 8 nM | – |
